In patent US10045530B2, “Agricultural pheromone compositions comprising positional isomers” (PROVIVI, INC., priority 2015, dated 2018):
Where two headings read alike, the source gives them in different places.

Columns and labels:
[1] = target: T1, LadA (Geobacillus thermodenitrificans, UniProt A4IU28); details: terminal hydroxylation; by alkane/FA chain length; cited from earlier work
T1 sequence (A4IU28 1-440): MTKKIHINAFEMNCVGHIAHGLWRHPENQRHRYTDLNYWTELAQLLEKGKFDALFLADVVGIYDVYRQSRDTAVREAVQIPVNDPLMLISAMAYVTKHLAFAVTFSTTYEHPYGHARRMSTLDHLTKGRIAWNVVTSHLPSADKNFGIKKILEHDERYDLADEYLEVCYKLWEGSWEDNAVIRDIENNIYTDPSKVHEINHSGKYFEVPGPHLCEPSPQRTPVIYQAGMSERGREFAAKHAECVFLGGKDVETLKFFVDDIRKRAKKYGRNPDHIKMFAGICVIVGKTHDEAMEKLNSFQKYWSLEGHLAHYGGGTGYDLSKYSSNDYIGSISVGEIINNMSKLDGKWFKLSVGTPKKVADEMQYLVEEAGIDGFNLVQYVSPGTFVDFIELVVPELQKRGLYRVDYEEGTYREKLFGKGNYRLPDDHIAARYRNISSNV

[2] = target: T2, CYP52A3 (Candida maltosa, UniProt P16496); details: terminal hydroxylation; by alkane/FA chain length; cited from earlier work
T2 sequence (P16496 2-523 limits assumed): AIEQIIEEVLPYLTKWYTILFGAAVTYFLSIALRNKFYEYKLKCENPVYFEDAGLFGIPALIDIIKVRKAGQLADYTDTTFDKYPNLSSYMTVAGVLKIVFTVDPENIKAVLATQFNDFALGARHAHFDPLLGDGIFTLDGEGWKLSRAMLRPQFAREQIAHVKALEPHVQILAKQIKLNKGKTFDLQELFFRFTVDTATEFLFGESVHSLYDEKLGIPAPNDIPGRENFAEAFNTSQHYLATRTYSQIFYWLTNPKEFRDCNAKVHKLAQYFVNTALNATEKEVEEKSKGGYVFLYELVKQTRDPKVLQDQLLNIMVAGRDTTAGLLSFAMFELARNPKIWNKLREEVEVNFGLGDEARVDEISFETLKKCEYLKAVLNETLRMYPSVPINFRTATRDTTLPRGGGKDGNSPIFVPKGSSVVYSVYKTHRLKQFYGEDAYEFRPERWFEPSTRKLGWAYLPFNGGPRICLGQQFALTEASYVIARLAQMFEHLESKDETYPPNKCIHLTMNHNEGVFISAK

[3] = target: T3, CYP52A4 (Candida maltosa, UniProt P16141); details: terminal hydroxylation; by alkane/FA chain length; cited from earlier work
T3 sequence (P16141 1-538): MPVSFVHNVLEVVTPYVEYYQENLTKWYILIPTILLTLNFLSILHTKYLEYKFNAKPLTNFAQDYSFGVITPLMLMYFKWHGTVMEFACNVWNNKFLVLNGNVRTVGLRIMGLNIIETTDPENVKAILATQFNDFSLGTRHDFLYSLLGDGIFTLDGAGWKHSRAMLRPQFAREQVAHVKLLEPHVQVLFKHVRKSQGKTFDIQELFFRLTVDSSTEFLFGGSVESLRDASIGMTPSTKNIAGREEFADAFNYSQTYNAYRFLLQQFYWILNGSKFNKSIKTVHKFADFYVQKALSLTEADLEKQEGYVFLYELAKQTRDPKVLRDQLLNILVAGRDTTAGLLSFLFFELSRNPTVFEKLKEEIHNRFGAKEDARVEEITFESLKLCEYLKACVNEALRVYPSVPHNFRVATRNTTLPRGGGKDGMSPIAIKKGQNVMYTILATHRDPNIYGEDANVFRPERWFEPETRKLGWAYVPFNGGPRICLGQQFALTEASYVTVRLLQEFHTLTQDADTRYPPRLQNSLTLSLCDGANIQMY

[4] = test system: CYP52A21; details: cited from earlier work
[5] = target: T4, AlkB P. putida GPo1 (Ectopseudomonas oleovorans, UniProt P12691); details: terminal hydroxylation; by alkane/FA chain length; cited from earlier work
T4 sequence (P12691 1-401): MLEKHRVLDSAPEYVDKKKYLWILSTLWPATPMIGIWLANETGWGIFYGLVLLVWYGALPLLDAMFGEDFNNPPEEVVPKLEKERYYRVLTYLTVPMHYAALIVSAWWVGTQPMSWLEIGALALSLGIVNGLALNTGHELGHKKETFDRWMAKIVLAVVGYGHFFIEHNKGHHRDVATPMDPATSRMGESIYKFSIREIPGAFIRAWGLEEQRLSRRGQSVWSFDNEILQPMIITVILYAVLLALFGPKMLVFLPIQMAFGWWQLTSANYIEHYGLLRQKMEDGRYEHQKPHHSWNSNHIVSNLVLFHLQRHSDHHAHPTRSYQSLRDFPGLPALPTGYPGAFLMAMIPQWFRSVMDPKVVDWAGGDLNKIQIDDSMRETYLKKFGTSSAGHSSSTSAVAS

[6] = test system: alkB2 Gordonia sp TF6; details: terminal hydroxylation; 100% relative activity obtained with hexane; cited from earlier work
[7] = test system: CYP153A6; details: cited from earlier work
[8] = test system: CYP153A16; details: cited from earlier work
[9] = test system: CYP153A P. sp.; details: cited from earlier work
[10] = test system: Helicoverpa zea; assay: Wind tunnel bioassay: upwind flight and lure location of male moths; format: in vivo; details: conclusions from 8.1-8.2
Protocol: Four separate experiments were conducted with the moth Helicoverpa zea and its respective pheromone components (Z-11-hexadecenal, Z-9-hexadecenal). Further, the addition of Z-5-hexadecenal, the positional isomer of the natural insect Z-11-hexadecenal pheromone, was also added to the Z-11 and Z-9 blends and tested. Upwind flight and lure location of male moths were compared for: natural ratios of pheromone (97% Z-11-hexadecenal with 3% of Z-9-hexadecenal) with and without addition of the Z-5-hexadecenal positional isomer at various ratios.
Moths (4-6 day-old males in second half of scotophase) were flown in a glass wind tunnel (120×30×30 cm). A fan pushed air into the wind tunnel at 0.4 m sec^−1 and a second fan exhausted air at a similar rate. To provide visual cues for navigation, the floor was covered with light colored construction paper on which small (2-5 cm) circles were drawn with marker (Experiment 1) or light colored circles that were cut from light colored construction paper were placed on the floor (Experiments 2-4). Lures were made with Soxhlet-extracted, grey-rubber septa from West. […]
A moth in a release cage was held on a platform 20 cm above the floor for 15 s in the plume of pheromone and then released by turning open end of the cage toward upwind. […] Flights were recorded on video and data were collected from videos. […]

[11] = terminal hydroxylation, by alkane/FA chain length

Row | Compound | Relative activity, LadA (Feng et al., 2007, Proc. Natl. Acad. Sci. U.S.A. 104: 5602-5607) [1] | Relative activity, CYP52A3 (Scheller et al., 1996, Arch. Biochem Biophys. 328: 245-254) [2] | Relative activity, CYP52A4 (Scheller et al., 1996, Arch. Biochem Biophys. 328: 245-254) [3] | Relative activity, alkB2 Gordonia sp TF6 (Fujii et al., 2004, Biosci. Biotechnol. Biochem. 68: 2171-2177) [6] [%] | further results
1 | CCCCCCCCCCCCCCC [C15] | 83 | – | – | – | –
2 | CCCCCCCCCCCC(=O)O [C12 FA (lauric)] | – | 20 | 100 | – | Relative activity, CYP52A21 (Kim et al., 2007, Arch. Biochem. Biophys. 464: 213-220) [4, 11]: 100
3 | CCCCCCCCCCCCCCCCCCCCCC [C22] | 74 | – | – | – | –
4 | CCCCCCCCCCCCCCCCCC [C18] | 78 | 48 | 20 | – | –
5 | CCCCCCCCCC [C10] | – | – | – | 66 | Relative activity, AlkB P. putida GPo1 (Vanbeilen et al., 1994, Enzyme Microb. Technol. 16: 904-911) [5]: 60; Relative activity, CYP153A6 (Funhoff et al., 2006, J. Bacteriol. 188: 5220-5227) [7]: 23; Relative activity, CYP153A16 (Scheps et al., 2011, Org. Biomol. Chem. 9: 6727-6733) [8]: 13; Relative activity, CYP153A P. sp. (Scheps et al., 2011, Org. Biomol. Chem. 9: 6727-6733) [9]: 60
6 | CCCCCCCCCCCCCC(=O)O [C14 FA (Myristic)] | – | – | – | – | Relative activity, CYP52A21 (Kim et al., 2007, Arch. Biochem. Biophys. 464: 213-220) [4]: 86
7 | CCCCCCCCCCCCCCCC(=O)O [C16 FA (Palmetic)] | – | 35 | 18 | – | Relative activity, CYP52A21 (Kim et al., 2007, Arch. Biochem. Biophys. 464: 213-220) [4, 11]: 29
8 | CCCCCCCCCC/C=C\CCCC=O [Z-5-hexadecedenal, Z-5-hexadecenal] | – | – | – | – | upwind flight response [10]: triggers a similar upwind flight response
9 | CCCCCCCCCCCC [C12] | – | 41 | 37 | 34 | –
10 | CCCCCCCC [C8] | – | – | – | 72 | Relative activity, AlkB P. putida GPo1 (Vanbeilen et al., 1994, Enzyme Microb. Technol. 16: 904-911) [5]: 95; Relative activity, CYP153A6 (Funhoff et al., 2006, J. Bacteriol. 188: 5220-5227) [7]: 100; Relative activity, CYP153A16 (Scheps et al., 2011, Org. Biomol. Chem. 9: 6727-6733) [8]: 100; Relative activity, CYP153A P. sp. (Scheps et al., 2011, Org. Biomol. Chem. 9: 6727-6733) [9]: 100
11 | CCCCCCCCCCCCCCCC [C16] | 100 | 100 | 33 | – | –
12 | CCCCCCCCCCC [C11] | – | – | – | 48 | Relative activity, AlkB P. putida GPo1 (Vanbeilen et al., 1994, Enzyme Microb. Technol. 16: 904-911) [5]: 6; Relative activity, CYP153A6 (Funhoff et al., 2006, J. Bacteriol. 188: 5220-5227) [7]: 1; Relative activity, CYP153A16 (Scheps et al., 2011, Org. Biomol. Chem. 9: 6727-6733) [8]: <8; Relative activity, CYP153A P. sp. (Scheps et al., 2011, Org. Biomol. Chem. 9: 6727-6733) [9]: <6
13 | CCCCCCCCC [C9] | – | – | – | 63 | Relative activity, AlkB P. putida GPo1 (Vanbeilen et al., 1994, Enzyme Microb. Technol. 16: 904-911) [5]: 100; Relative activity, CYP153A6 (Funhoff et al., 2006, J. Bacteriol. 188: 5220-5227) [7]: 82; Relative activity, CYP153A16 (Scheps et al., 2011, Org. Biomol. Chem. 9: 6727-6733) [8]: 29; Relative activity, CYP153A P. sp. (Scheps et al., 2011, Org. Biomol. Chem. 9: 6727-6733) [9]: 69
14 | CCCCCCCCCCCCCCCCCCCCCCCC [C24] | 65 | – | – | – | –
15 | CCCCCCCCCCCCCCCCCC(=O)O [C18 FA (Stearic)] | – | 30 | 1 | – | –
